Article PMC7070283, “Effect of Copper on the Mitochondrial Carnitine/Acylcarnitine Carrier Via Interaction with Cys136 and Cys155. Possible Implications in Pathophysiology” (Molecules, 2020)

Target: T1, native carnitine/acylcarnitine carrier (CAC) (Rattus norvegicus, UniProt P97521)
T1 construct: the native protein extracted from rat liver mitochondria; from tissue; host or cells: rat liver mitochondria
T1 sequence (P97521 1-301): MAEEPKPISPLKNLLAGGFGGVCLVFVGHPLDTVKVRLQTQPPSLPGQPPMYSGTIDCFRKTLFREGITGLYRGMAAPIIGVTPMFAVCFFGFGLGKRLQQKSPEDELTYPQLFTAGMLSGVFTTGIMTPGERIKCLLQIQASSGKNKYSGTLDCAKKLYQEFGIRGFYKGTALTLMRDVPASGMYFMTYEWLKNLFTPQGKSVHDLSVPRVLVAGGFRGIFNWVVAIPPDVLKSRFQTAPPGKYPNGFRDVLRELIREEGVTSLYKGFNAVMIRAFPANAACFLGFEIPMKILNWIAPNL
Assay: [3H]carnitine/carnitine antiport in proteoliposomes reconstituted with native CAC extracted from rat liver mitochondria
Type: biochemical
Settings: intact rat liver mitochondria incubated 1 h with CuCl2 (50 µM) or GSH (5 mM), then CAC extracted and reconstituted
Experimental: Figure 2 Dose-response analysis of copper effect on the native CAC. Proteoliposomes reconstituted with the CAC extracted from rat liver mitochondria were incubated with (○) CuCl2 or (●) CuCl at the indicated concentrations for 1 min, and then the transport activity was measured by adding 0.1 mM [^3H]carnitine and stopped after 10 min as described in Materials and Methods. Percent of residual activity with respect to the control, without copper treatment, is reported. The values are the means ± SD from three independent experiments.
The recombinant CAC (WT and mutant) proteins were used for proteoliposome formation as previously described. For the experiments with the native protein, rat liver mitochondria were first purified using the standard procedure of cell disruption and differential centrifugation. […]
Transport was started by adding 0.1 mM [^3H]carnitine to proteoliposome samples and, at the indicated time interval stopped by 1.5 mM NEM. […] After terminating the transport reaction, the external substrate was removed by chromatography on Sephadex G-75 columns, and the intraliposomal radioactivity was measured. Transport was measured at 25 °C. […] Transport rates were measured in 5 min, i.e., within the initial linear range of the time course.

N[C@@H](CCC(=O)N[C@@H](CS)C(=O)NCC(=O)O)C(=O)O [GSH, reduced glutathione]
effect on transport with respect to protein from untreated mitochondria: did not exert any appreciable effect
